Test results published in patent US20220289782A1, “A Compound with High Anticoagulant Activity and Its Preparation Method and Application” (SUZHOU WISMED PHARMACEUTICALS CO LTD, priority 2019, published 2022).

How the values were obtained:
[1] = test system: factor Xa; test: Determination of anticoagulant factor Xa activity (substrate developing method as for low molecular heparin); format: biochemical
Method: (§1) The pentose (API) in Example 10 is subjected to a biological test: anticoagulant factor Xa activity and half-life (Ti/2), as shown in Table 1. Determination of anticoagulant factor Xa activity: Refer to substrate developing method for determination of anticoagulant factor Xa of low molecular heparin. Measurement of half-life: inject this anticoagulant pentose (dosage 1 mg/Kg) in male Wistar rats intravenously for pharmacokinetic study, calculate the concentration of this compound in blood by measuring the anticoagulant factor Xa in plasma, and calculate the half-life (T1/2) by the concentration-time curve.

[2] = Half-life after intravenous injection in male Wistar rats, concentration from plasma anti-factor Xa; format: in vivo; settings: 1 mg/Kg, T1/2 from concentration-time curve
Method: as §1

- Half-life [2]: 0.6 ± 0.1 H
Structure (SMILES): CO[C@H]1O[C@H](COS(=O)(=O)O)[C@@H](O[C@@H]2O[C@@H](C(=O)O)[C@@H](O[C@H]3O[C@H](COS(=O)(=O)O)[C@@H](O[C@@H]4O[C@H](C(=O)O)[C@@H](O[C@H]5O[C@H](COS(=O)(=O)O)[C@@H](O)[C@H](O)[C@H]5NS(=O)(=O)O)[C@H](O)[C@H]4O)[C@H](OS(=O)(=O)O)[C@H]3NS(=O)(=O)O)[C@H](O)[C@H]2OS(=O)(=O)O)[C@H](O)[C@H]1NS(=O)(=O)O [Fondaparinux sodium]
- Anticoagulant Factor Xa [1]: 750 + 30 IU/mg
